From PMC4823954, “From fighting depression to conquering tumors: a novel tricyclic thiazepine compound as a tubulin polymerization inhibitor” (Cell Death & Disease, 2016)

Key:
Test in all cases: KINOMEscan
Type in all cases: binding
Conditions in all cases: read-out: % Ctrl
[1] = target: T1, VRK2 (Homo sapiens, UniProt Q86Y07)
T1 construct: purchased DiscoveRx KINOMEscan
Procedure, shortened: (§1)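 Competition binding panel of 442 non-mutant kinases: test compound at 5 and 10 μM competed with an active-site-directed ligand for 1 h with shaking. Bound kinase was eluted with 0.5 μM ligand and quantified by qPCR; %Ctrl = (compound − positive control)/(DMSO − positive control) × 100, lower meaning tighter binding.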

[2] = target: T2, HPK1 (Homo sapiens, UniProt Q92918)
T2 construct: purchased DiscoveRx KINOMEscan
Procedure, shortened: as §1

[3] = target: T3, AURKC (Homo sapiens, UniProt Q9UQB9)
T3 construct: purchased DiscoveRx KINOMEscan
Procedure, shortened: as §1

[4] = target: T4, RIPK5 (Homo sapiens, UniProt Q6XUX3)
T4 construct: purchased DiscoveRx KINOMEscan
Procedure, shortened: as §1

[5] = target: T5, VEGFR2 (Homo sapiens, UniProt P35968)
T5 construct: purchased DiscoveRx KINOMEscan
Procedure, shortened: as §1

[6] = target: T6, PRKD1 (Homo sapiens, UniProt Q15139)
T6 construct: purchased DiscoveRx KINOMEscan
Procedure, shortened: as §1

[7] = target: T7, FLT1 (Homo sapiens, UniProt P17948)
T7 construct: purchased DiscoveRx KINOMEscan
Procedure, shortened: as §1

[8] = target: T8, PRKCE (Homo sapiens, UniProt Q02156)
T8 construct: purchased DiscoveRx KINOMEscan
Procedure, shortened: as §1

[9] = target: T9, TGFBR2 (Homo sapiens, UniProt P37173)
T9 construct: purchased DiscoveRx KINOMEscan
Procedure, shortened: as §1

[10] = target: T10, CDC2L2 (Homo sapiens, UniProt Q9UQ88)
T10 construct: purchased DiscoveRx KINOMEscan
Procedure, shortened: as §1

[11] = target: T11, LOK (Homo sapiens, UniProt O94804)
T11 construct: purchased DiscoveRx KINOMEscan
Procedure, shortened: as §1

[12] = target: T12, LZK (Homo sapiens, UniProt O43283)
T12 construct: purchased DiscoveRx KINOMEscan
Procedure, shortened: as §1

[13] = target: T13, MLCK (Homo sapiens, UniProt Q32MK0)
T13 construct: purchased DiscoveRx KINOMEscan
Procedure, shortened: as §1

[14] = target: T14, ASK1 (Homo sapiens, UniProt Q99683)
T14 construct: purchased DiscoveRx KINOMEscan
Procedure, shortened: as §1

[15] = target: T15, FYN (Homo sapiens, UniProt P06241)
T15 construct: purchased DiscoveRx KINOMEscan
Procedure, shortened: as §1

[16] = target: T16, PCTK2 (Homo sapiens, UniProt Q00537)
T16 construct: purchased DiscoveRx KINOMEscan
Procedure, shortened: as §1

[17] = target: T17, PFCDPK1(P.falciparum) (Plasmodium falciparum, UniProt P62344)
T17 construct: purchased DiscoveRx KINOMEscan
Procedure, shortened: as §1

[18] = target: T18, TTK (Homo sapiens, UniProt P33981)
T18 construct: purchased DiscoveRx KINOMEscan
Procedure, shortened: as §1

[19] = target: T19, SLK (Homo sapiens, UniProt Q9H2G2)
T19 construct: purchased DiscoveRx KINOMEscan
Procedure, shortened: as §1

[20] = target: T20, BTK (Homo sapiens, UniProt Q06187)
T20 construct: purchased DiscoveRx KINOMEscan
Procedure, shortened: as §1

[21] = target: T21, CSNK1A1L (Homo sapiens, UniProt Q8N752)
T21 construct: purchased DiscoveRx KINOMEscan
Procedure, shortened: as §1

[22] = target: T22, PAK2 (Homo sapiens, UniProt Q13177)
T22 construct: purchased DiscoveRx KINOMEscan
Procedure, shortened: as §1

[23] = target: T23, DLK (Homo sapiens, UniProt Q12852)
T23 construct: purchased DiscoveRx KINOMEscan
Procedure, shortened: as §1

[24] = target: T24, PRKCH (Homo sapiens, UniProt P24723)
T24 construct: purchased DiscoveRx KINOMEscan
Procedure, shortened: as §1

[25] = target: T25, ASK2 (Homo sapiens, UniProt O95382)
T25 construct: purchased DiscoveRx KINOMEscan
Procedure, shortened: as §1

[26] = target: T26, EIF2AK1 (Homo sapiens, UniProt Q9BQI3)
T26 construct: purchased DiscoveRx KINOMEscan
Procedure, shortened: as §1

[27] = target: T27, FES (Homo sapiens, UniProt P07332)
T27 construct: purchased DiscoveRx KINOMEscan
Procedure, shortened: as §1

[28] = target: T28, TAOK1 (Homo sapiens, UniProt Q7L7X3)
T28 construct: purchased DiscoveRx KINOMEscan
Procedure, shortened: as §1

[29] = target: T29, CDKL1 (Homo sapiens, UniProt Q00532)
T29 construct: purchased DiscoveRx KINOMEscan
Procedure, shortened: as §1

[30] = target: T30, EPHA2 (Homo sapiens, UniProt P29317)
T30 construct: purchased DiscoveRx KINOMEscan
Procedure, shortened: as §1

[31] = target: T31, RIPK2 (Homo sapiens, UniProt O43353)
T31 construct: purchased DiscoveRx KINOMEscan
Procedure, shortened: as §1

T30 sequence (P29317 24-976): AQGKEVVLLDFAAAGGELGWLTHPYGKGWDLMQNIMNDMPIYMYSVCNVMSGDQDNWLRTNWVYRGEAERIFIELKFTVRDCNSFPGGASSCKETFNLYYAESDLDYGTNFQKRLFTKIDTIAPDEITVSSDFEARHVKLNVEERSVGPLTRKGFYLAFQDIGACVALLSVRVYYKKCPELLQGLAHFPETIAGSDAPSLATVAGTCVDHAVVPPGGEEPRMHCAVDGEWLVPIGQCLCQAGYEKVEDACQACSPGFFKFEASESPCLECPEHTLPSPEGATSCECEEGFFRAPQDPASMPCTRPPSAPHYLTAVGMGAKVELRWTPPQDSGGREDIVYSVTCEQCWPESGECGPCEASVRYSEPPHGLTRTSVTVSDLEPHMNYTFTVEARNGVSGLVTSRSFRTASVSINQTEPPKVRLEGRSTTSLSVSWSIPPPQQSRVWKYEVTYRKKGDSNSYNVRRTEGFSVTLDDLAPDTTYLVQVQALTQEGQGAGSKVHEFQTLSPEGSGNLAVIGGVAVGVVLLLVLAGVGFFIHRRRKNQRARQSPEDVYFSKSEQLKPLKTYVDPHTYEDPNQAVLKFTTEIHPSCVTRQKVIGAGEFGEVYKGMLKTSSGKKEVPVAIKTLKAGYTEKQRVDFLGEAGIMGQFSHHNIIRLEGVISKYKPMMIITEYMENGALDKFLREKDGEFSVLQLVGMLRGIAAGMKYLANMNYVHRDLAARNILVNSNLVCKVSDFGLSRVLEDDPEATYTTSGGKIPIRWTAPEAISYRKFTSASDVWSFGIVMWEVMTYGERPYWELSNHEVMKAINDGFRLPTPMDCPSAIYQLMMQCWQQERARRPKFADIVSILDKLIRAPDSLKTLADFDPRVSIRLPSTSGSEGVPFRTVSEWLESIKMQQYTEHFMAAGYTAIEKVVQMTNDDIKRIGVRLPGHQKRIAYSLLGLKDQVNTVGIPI
T5 sequence (P35968 20-1356): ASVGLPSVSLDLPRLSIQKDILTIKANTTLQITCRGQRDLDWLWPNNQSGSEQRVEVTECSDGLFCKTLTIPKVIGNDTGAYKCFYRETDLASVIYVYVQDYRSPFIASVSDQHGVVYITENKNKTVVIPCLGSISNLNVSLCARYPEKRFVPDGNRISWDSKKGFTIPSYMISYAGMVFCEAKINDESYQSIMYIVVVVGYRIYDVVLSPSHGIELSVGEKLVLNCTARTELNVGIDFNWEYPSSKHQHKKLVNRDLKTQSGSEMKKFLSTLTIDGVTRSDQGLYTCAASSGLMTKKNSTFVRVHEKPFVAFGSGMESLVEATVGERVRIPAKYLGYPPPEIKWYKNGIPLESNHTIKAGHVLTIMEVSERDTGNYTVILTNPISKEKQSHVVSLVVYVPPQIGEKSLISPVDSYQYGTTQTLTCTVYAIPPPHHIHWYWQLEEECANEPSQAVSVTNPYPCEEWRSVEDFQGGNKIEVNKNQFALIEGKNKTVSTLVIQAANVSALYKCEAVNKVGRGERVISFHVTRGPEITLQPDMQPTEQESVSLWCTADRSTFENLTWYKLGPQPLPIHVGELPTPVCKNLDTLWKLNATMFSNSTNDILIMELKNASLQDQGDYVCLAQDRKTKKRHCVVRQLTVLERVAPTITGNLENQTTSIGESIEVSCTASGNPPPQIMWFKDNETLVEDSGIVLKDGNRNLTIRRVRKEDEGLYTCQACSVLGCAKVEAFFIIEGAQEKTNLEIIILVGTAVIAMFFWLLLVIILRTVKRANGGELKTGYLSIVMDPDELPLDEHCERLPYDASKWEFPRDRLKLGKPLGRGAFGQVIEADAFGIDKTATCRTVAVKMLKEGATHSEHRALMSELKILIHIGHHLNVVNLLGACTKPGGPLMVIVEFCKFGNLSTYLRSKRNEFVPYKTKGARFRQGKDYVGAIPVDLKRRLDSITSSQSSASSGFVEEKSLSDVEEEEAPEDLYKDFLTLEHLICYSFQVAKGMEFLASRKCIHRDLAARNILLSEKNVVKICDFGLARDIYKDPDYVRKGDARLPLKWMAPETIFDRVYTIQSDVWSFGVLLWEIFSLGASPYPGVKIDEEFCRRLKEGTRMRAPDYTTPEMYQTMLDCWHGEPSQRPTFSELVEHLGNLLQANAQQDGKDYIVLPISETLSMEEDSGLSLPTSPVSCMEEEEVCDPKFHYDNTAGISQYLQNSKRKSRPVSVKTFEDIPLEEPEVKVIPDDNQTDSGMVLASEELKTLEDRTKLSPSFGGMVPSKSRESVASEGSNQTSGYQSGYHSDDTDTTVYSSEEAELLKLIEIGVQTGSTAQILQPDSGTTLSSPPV
T10 sequence (Q9UQ88 whole entry): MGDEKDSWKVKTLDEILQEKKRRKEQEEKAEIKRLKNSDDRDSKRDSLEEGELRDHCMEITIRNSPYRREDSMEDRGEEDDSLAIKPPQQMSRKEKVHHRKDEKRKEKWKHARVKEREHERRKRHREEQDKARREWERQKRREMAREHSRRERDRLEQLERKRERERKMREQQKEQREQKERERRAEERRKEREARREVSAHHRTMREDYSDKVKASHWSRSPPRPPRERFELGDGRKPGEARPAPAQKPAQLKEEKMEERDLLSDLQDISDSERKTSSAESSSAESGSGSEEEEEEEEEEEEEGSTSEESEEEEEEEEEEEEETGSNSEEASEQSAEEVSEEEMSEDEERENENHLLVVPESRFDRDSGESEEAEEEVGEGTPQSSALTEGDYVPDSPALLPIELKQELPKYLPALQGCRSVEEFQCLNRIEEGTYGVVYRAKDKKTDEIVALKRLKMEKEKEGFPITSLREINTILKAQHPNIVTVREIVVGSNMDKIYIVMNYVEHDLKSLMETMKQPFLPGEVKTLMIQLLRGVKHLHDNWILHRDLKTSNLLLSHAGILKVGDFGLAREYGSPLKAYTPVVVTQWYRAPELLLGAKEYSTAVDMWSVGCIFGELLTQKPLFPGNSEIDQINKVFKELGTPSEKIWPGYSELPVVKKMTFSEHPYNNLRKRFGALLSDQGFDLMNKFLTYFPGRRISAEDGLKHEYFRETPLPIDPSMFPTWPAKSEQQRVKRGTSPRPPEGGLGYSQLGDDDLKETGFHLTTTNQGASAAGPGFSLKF
T16 sequence (Q00537 whole entry): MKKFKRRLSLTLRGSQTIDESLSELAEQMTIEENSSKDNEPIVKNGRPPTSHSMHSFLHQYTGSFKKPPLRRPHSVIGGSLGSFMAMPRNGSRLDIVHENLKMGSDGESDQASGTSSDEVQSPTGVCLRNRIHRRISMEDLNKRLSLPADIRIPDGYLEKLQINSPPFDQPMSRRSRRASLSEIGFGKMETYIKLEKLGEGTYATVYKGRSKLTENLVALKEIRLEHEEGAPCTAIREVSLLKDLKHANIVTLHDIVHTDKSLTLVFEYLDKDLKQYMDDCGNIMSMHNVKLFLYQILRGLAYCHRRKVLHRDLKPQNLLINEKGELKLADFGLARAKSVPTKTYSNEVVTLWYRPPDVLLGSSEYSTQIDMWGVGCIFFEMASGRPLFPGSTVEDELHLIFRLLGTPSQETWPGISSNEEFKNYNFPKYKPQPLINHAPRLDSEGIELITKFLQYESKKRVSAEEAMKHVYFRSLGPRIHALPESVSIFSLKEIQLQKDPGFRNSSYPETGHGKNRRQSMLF
T1 sequence (Q86Y07 whole entry): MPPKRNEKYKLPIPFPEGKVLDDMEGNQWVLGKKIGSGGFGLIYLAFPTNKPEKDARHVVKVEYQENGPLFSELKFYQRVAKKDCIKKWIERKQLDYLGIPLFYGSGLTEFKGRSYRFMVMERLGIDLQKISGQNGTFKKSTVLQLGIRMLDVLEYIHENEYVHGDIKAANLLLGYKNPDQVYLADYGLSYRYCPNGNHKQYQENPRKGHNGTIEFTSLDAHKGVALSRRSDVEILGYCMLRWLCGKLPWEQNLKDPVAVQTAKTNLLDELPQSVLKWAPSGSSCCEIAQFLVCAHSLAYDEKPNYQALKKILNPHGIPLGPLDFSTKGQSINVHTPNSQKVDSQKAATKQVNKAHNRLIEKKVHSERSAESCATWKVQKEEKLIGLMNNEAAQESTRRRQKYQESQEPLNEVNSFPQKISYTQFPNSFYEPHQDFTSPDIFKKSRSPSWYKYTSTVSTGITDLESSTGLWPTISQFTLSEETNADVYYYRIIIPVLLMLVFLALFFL
T26 sequence (Q9BQI3 whole entry): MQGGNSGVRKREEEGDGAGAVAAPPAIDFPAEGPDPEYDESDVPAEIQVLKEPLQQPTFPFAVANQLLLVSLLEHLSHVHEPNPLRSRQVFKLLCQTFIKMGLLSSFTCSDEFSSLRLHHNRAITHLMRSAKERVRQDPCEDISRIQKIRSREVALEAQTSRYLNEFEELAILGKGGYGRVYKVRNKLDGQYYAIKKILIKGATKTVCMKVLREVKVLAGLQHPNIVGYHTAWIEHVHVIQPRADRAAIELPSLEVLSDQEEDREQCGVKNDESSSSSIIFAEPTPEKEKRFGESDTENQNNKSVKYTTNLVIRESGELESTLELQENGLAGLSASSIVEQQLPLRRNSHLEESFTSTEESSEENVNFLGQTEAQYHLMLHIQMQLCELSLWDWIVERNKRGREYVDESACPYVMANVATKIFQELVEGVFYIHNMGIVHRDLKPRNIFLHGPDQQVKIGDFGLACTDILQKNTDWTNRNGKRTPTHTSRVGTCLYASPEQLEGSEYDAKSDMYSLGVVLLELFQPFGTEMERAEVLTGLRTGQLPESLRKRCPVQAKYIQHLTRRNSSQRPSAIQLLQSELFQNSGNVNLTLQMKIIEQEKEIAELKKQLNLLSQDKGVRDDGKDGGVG
T21 sequence (Q8N752 whole entry): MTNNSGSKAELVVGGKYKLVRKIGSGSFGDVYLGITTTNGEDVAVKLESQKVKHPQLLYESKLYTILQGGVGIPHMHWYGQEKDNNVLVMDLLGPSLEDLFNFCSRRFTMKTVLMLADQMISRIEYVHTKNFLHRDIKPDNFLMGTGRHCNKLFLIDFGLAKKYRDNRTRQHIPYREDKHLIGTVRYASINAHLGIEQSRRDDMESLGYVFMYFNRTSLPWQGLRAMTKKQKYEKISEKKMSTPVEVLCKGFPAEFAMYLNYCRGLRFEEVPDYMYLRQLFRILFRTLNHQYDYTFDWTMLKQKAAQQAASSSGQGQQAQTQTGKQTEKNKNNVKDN

## Cc1ccc(C2=Nc3cccnc3S(=O)(=O)c3ccccc32)cc1 [TBPT, 6-(p-tolyl)benzo[f] pyrido[2,3-b][1,4] thiazepine 11,11-dioxide]
[1]; 5 μM
  remaining binding at 5 µM: 100%
[1]; 10 μM
  remaining binding at 10 µM: 69%
[2]; 5 μM
  remaining binding at 5 µM: 93%
[2]; 10 μM
  remaining binding at 10 µM: 100%
[3]; 5 μM
  remaining binding at 5 µM: 85%
[3]; 10 μM
  remaining binding at 10 µM: 96%
[4]; 5 μM
  remaining binding at 5 µM: 58%
[4]; 10 μM
  remaining binding at 10 µM: 83%
[5]; 5 μM
  remaining binding at 5 µM: 95%
[5]; 10 μM
  remaining binding at 10 µM: 84%
[6]; 5 μM
  remaining binding at 5 µM: 100%
[6]; 10 μM
  remaining binding at 10 µM: 78%
[7]; 5 μM
  remaining binding at 5 µM: 100%
[7]; 10 μM
  remaining binding at 10 µM: 98%
[8]; 5 μM
  remaining binding at 5 µM: 100%
[8]; 10 μM
  remaining binding at 10 µM: 100%
[9]; 5 μM
  remaining binding at 5 µM: 100%
[9]; 10 μM
  remaining binding at 10 µM: 81%
[10]; 5 μM
  remaining binding at 5 µM: 100%
[10]; 10 μM
  remaining binding at 10 µM: 100%
[11]; 5 μM
  remaining binding at 5 µM: 100%
[11]; 10 μM
  remaining binding at 10 µM: 92%
[12]; 5 μM
  remaining binding at 5 µM: 100%
[12]; 10 μM
  remaining binding at 10 µM: 93%
[13]; 5 μM
  remaining binding at 5 µM: 92%
[13]; 10 μM
  remaining binding at 10 µM: 95%
[14]; 5 μM
  remaining binding at 5 µM: 100%
[14]; 10 μM
  remaining binding at 10 µM: 100%
[15]; 5 μM
  remaining binding at 5 µM: 85%
[15]; 10 μM
  remaining binding at 10 µM: 95%
[16]; 5 μM
  remaining binding at 5 µM: 100%
[16]; 10 μM
  remaining binding at 10 µM: 89%
[17]; 5 μM
  remaining binding at 5 µM: 100%
[17]; 10 μM
  remaining binding at 10 µM: 100%
[18]; 5 μM
  remaining binding at 5 µM: 100%
[18]; 10 μM
  remaining binding at 10 µM: 100%
[19]; 5 μM
  remaining binding at 5 µM: 100%
[19]; 10 μM
  remaining binding at 10 µM: 86%
[20]; 5 μM
  remaining binding at 5 µM: 91%
[20]; 10 μM
  remaining binding at 10 µM: 83%
[21]; 5 μM
  remaining binding at 5 µM: 100%
[21]; 10 μM
  remaining binding at 10 µM: 91%
[22]; 5 μM
  remaining binding at 5 µM: 100%
[22]; 10 μM
  remaining binding at 10 µM: 100%
[23]; 5 μM
  remaining binding at 5 µM: 88%
[23]; 10 μM
  remaining binding at 10 µM: 81%
[24]; 5 μM
  remaining binding at 5 µM: 82%
[24]; 10 μM
  remaining binding at 10 µM: 100%
[25]; 5 μM
  remaining binding at 5 µM: 82%
[25]; 10 μM
  remaining binding at 10 µM: 100%
[26]; 5 μM
  remaining binding at 5 µM: 100%
[26]; 10 μM
  remaining binding at 10 µM: 100%
[27]; 5 μM
  remaining binding at 5 µM: 100%
[27]; 10 μM
  remaining binding at 10 µM: 98%
[28]; 5 μM
  remaining binding at 5 µM: 100%
[28]; 10 μM
  remaining binding at 10 µM: 100%
[29]; 5 μM
  remaining binding at 5 µM: 94%
[29]; 10 μM
  remaining binding at 10 µM: 88%
[30]; 5 μM
  remaining binding at 5 µM: 87%
[30]; 10 μM
  remaining binding at 10 µM: 95%
[31]; 5 μM
  remaining binding at 5 µM: 92%
[31]; 10 μM
  remaining binding at 10 µM: 97%
